From patent US6967215B2, “Tetrahydrocarbazoles, a process for the preparation of those compounds, and the use thereof” (Ciba Specialty Chemicals Corporation, priority 2000, dated 2005)

Columns and labels:
Assay in all cases: MIC, microtitre dilution test (growth by optical density at 620 nm)
Type in all cases: cell-based
[1] = system: Aspergillus niger ATCC 6175; details: Table 5
Experimental: (§1) Nutrient: Mycological slant agar for the pre-culture of moulds [table] The test substances are predissolved in dimethyl sulfoxide (DMSO) and tested in a dilution series of 1:2. Bacteria and yeast are cultured overnight in CASO bouillon, the mould is cultured overnight on mycological slant agar, and washed off with 10 ml of 0.85% sodium chloride solution (+0.1% TritonX-100). All the test organisms are adjusted to an organism count of 1-5×10^6 CFU/ml using 0.85% sodium chloride solution. The test substances are pre-pipetted into microtitre plates in an amount of 8 μl per well. Pre-diluted organism suspensions are diluted 1:100 in CASO bouillon (bacteria and yeast) or Sabouraud 2% glucose bouillon (mould) and are added in an amount of 192 μl per well to the test substances. The test batches are incubated for 48 hours at 37° C. (bacteria and yeast) or for 5 days at 28° C. (mould). After incubation, the growth is evaluated by reference to the turbidity of the test batches (optical density) at 620 nm in a microplate reader. The minimum inhibitory concentration (MIC value) is the concentration of substance at which (compared with the growth of the control) an appreciable inhibition of growth (≦20% growth) of the test organisms is ascertained. One microtitre plate is used for each test organism and substance concentration. All the substances are tested in duplicate.

[2] = system: Escherichia coli NCTC 8196; details: for MIC [ppm] E. coil: Table 5
Experimental: (§2) Casein/soybean flour peptone bouillon for the preparation of pre-cultures of the test bacteria and yeast.
(§3) The test substances are predissolved in dimethyl sulfoxide (DMSO) and tested in a dilution series of 1:2.
(§4) Bacteria and yeast are cultured overnight in CASO bouillon, the mould is cultured overnight on mycological slant agar, and washed off with 10 ml of 0.85% sodium chloride solution (+0.1% TritonX-100).
(§5) All the test organisms are adjusted to an organism count of 1-5×10^6 CFU/ml using 0.85% sodium chloride solution.
(§6) The test substances are pre-pipetted into microtitre plates in an amount of 8 μl per well.
(§7) Pre-diluted organism suspensions are diluted 1:100 in CASO bouillon (bacteria and yeast) or Sabouraud 2% glucose bouillon (mould) and are added in an amount of 192 μl per well to the test substances.
(§8) The test batches are incubated for 48 hours at 37° C. (bacteria and yeast) or for 5 days at 28° C. (mould).
(§9) After incubation, the growth is evaluated by reference to the turbidity of the test batches (optical density) at 620 nm in a microplate reader.
(§10) The minimum inhibitory concentration (MIC value) is the concentration of substance at which (compared with the growth of the control) an appreciable inhibition of growth (≦20% growth) of the test organisms is ascertained.
(§11) One microtitre plate is used for each test organism and substance concentration. All the substances are tested in duplicate.

[3] = system: Staphylococcus hominis DMS 20328
Experimental: as §2, §3, §4, §5, §6, §7, §8, §9, §10, §11

P. aeruginosa = details: Table 5
Experimental: as §1, with “All” for “Nutrient: Mycological slant agar for the pre-culture of moulds [table] The test substances are predissolved in dimethyl sulfoxide (DMSO) and tested in a dilution series of 1:2. Bacteria and yeast are cultured overnight in CASO bouillon, the mould is cultured overnight on mycological slant agar, and washed off with 10 ml of 0.85% sodium chloride solution (+0.1% TritonX-100). All”

[4] = Table 2, Staphylococcus hominis DMS 20328

MIC [ppm] A. niger [1] [ppm] | MIC [ppm] E. coil [2] [ppm] | MIC [ppm] S. hominis ([3]; Table 5) [ppm] | MIC [ppm] P. aeruginosa (P. aeruginosa) [ppm] | MIC [ppm] E. coli ([2]; Table 2, Escherichia coli) [ppm] | MIC [ppm] S. hominis [3, 4] [ppm] | MIC ([2]; NCTC8196, Table 2, Escherichia coli, read-out: MIC [ppm] E. coli) [µg/mL] | MIC ([3]; DMS20328, Table 2, Staphylococcus hominis DMS 20328, read-out: MIC [ppm] S. hominis) [µg/mL] | SMILES
>120 | >120 | 30 | 60 |  |  |  |  | COc1cccc2[nH]c3c(c12)C1CCCCCC1C1C(=O)NC(=O)C31 (stereo not shown) [Compound 187]
>120 | >120 | >120 | 60 |  |  |  |  | CCCN1CCC2c3c([nH]c4cccc(C(=O)OC)c34)C3C(=O)NC(=O)C3C2C1 (stereo not shown) [Compound 201]
>120 | 120 | 120 | >120 |  |  |  |  | CCCN1CCC2c3c([nH]c4c(C)cccc34)C3C(=O)NC(=O)C3C2C1 (stereo not shown) [Compound 222]
>120 | >120 | >120 | >120 |  |  |  |  | CCCN1CCC2c3c([nH]c4cc(OC)c(OC)cc34)C3C(=O)NC(=O)C3C2C1 (stereo not shown) [Compound 238]
>120 | 120 | 15 | >120 |  |  |  |  | CC(C)NCC(O)COc1cccc2[nH]c3c(c12)C1CCCCCC1C1C(=O)NC(=O)C31 (stereo not shown) [Compound 189]
>120 | >120 | 120 | 120 |  |  |  |  | CCCN1CCC2c3c([nH]c4cc(OC)ccc34)C3C(=O)NC(=O)C3C2C1 (stereo not shown) [Compound 231]
>120 | >120 | >120 | 120 |  |  |  |  | CCCN1CCC2c3c([nH]c4cccc(C)c34)C3C(=O)NC(=O)C3C2C1 (stereo not shown) [Compound 186]
>120 | >120 | >120 | >120 |  |  |  |  | CCCN1CCC2c3c([nH]c4c(OC)cccc34)C3C(=O)NC(=O)C3C2C1 (stereo not shown) [Compound 229]
>120 | >120 | >120 | >120 |  |  |  |  | CCCN1CCC2c3c([nH]c4cccc(OCC(O)CNC(C)C)c34)C3C(=O)NC(=O)C3C2C1 (stereo not shown) [Compound 190]
>120 | 60 | >120 | >120 |  |  |  |  | CCCN1CCC2c3c([nH]c4ccc(F)cc34)C3C(=O)NC(=O)C3C2C1 (stereo not shown) [Compound 193]
>120 | >120 | 15 | >120 |  |  |  |  | O=C1NC(=O)C2C1c1[nH]c3ccccc3c1C1CC3CCCCC3CC12 (stereo not shown) [Compound 183]
>120 | 120 | >120 | 120 |  |  |  |  | CCCN1CCC2c3c([nH]c4c(F)cccc34)C3C(=O)NC(=O)C3C2C1 (stereo not shown) [Compound 211]
>120 | 120 | 120 | >120 |  |  |  |  | CCCN1CCC2c3c([nH]c4cccc(F)c34)C3C(=O)NC(=O)C3C2C1 (stereo not shown) [Compound 226]
>120 | >120 | >120 | 120 |  |  |  |  | CCCN1CCC2c3c([nH]c4cc(F)ccc34)C3C(=O)NC(=O)C3C2C1 (stereo not shown) [Compound 207]
>120 | 60 | 30 | 120 |  |  |  |  | CCCN1CCC2c3c([nH]c4cc(C(F)(F)F)ccc34)C3C(=O)NC(=O)C3C2C1 (stereo not shown) [Compound 215]
 |  |  |  | 120 | >120 |  |  | CN1CCC2c3c([nH]c4ccccc34)C3C(=O)N(C)C(=O)C3C2C1 (stereo not shown) [Compound 123]
 |  |  |  | >120 | >120 |  |  | CCCN1CCC2c3c([nH]c4ccc(OC)cc34)C3C(=O)N(C)C(=O)C3C2C1 (stereo not shown) [Compound 169]
 |  |  |  | >120 | >120 |  |  | CC(C)(C)C1CCC2c3c([nH]c4ccccc34)C3C(=O)N(c4ccccc4)C(=O)C3C2C1 (stereo not shown) [Compound 13]

MIC [ppm] A. niger [1] [ppm] | MIC [ppm] E. coil [2] [ppm] | MIC [ppm] S. hominis ([3]; Table 5) [ppm] | MIC [ppm] P. aeruginosa (P. aeruginosa) [ppm] | MIC [ppm] E. coli ([2]; Table 2, Escherichia coli) [ppm] | MIC [ppm] S. hominis [3, 4] [ppm] | MIC ([2]; NCTC8196, Table 2, Escherichia coli, read-out: MIC [ppm] E. coli) [µg/mL] | MIC ([3]; DMS20328, Table 2, Staphylococcus hominis DMS 20328, read-out: MIC [ppm] S. hominis) [µg/mL] | SMILES
 |  |  |  | 120 | 120 |  |  | COc1ccc2[nH]c3c(c2c1)C1CCN(Cc2ccccc2)CC1C1C(=O)N(C)C(=O)C31 (stereo not shown) [Compound 177]
 |  |  |  | >120 | >120 |  |  | CN1C(=O)C2c3[nH]c4ccccc4c3C3CC(C)(C)CC(C)(C)C3C2C1=O (stereo not shown) [Compound 126]
 |  |  |  | >120 | 120 |  |  | COc1ccc2[nH]c3c(c2c1)C1CCCC1C1C(=O)N(C)C(=O)C31 (stereo not shown) [Compound 165]
 |  |  |  | >120 | >120 |  |  | Cn1c2c(c3ccccc31)C1CC(C)(C)NC(C)(C)C1C1C(=O)N(c3ccccc3)C(=O)C21 (stereo not shown) [Compound 24]
 |  |  |  | >120 | >120 |  |  | COc1ccc2[nH]c3c(c2c1)C1CC(C)(C)NC(C)(C)C1C1C(=O)N(C)C(=O)C31 (stereo not shown) [Compound 168]
 |  |  |  |  |  | > 120 | > 120 | CC1CCC2C(C1)c1c([nH]c3ccccc13)C1C(=O)N(C)C(=O)C12 (stereo not shown) [Compound 117]
 |  |  |  | >120 | >120 |  |  | COc1ccc2[nH]c3c(c2c1)C1CCN(C)CC1C1C(=O)N(C)C(=O)C31 (stereo not shown) [Compound 178]
 |  |  |  | >120 | >120 |  |  | CCN1C(=O)C2c3c(c4ccccc4n3C)C3CCC(C(C)(C)C)CC3C2C1=O (stereo not shown) [Compound 49]
 |  |  |  | >120 | 15 |  |  | CC(C)(C)C1CCC2c3c([nH]c4ccccc34)C3C(=O)NC(=O)C3C2C1 (stereo not shown) [Compound 26]
 |  |  |  | >120 | >120 |  |  | COc1ccc2[nH]c3c(c2c1)C1CCCCCCCCCCC1C1C(=O)N(C)C(=O)C31 (stereo not shown) [Compound 179]
 |  |  |  | >120 | 15 |  |  | CCc1cccc2c3c([nH]c12)C1C(=O)NC(=O)C1C1CCCCCC31 (stereo not shown) [Compound 77]
 |  |  |  | >120 | >120 |  |  | CC(C)(C)C1CCC2c3c([nH]c4ccc(Br)cc34)C3C(=O)N(c4ccccc4)C(=O)C3C2C1 (stereo not shown) [Compound 19]
 |  |  |  | >120 | >120 |  |  | COc1ccc2[nH]c3c(c2c1)C1CC(C)(C)CC(C)(C)C1C1C(=O)N(C)C(=O)C31 (stereo not shown) [Compound 181]
 |  |  |  | >120 | >120 |  |  | Cn1c2c(c3ccccc31)C1CCC(C(C)(C)C)CC1C1C(=O)NC(=O)C21 (stereo not shown) [Compound 36]
 |  |  |  | >120 | 15 |  |  | CN1C(=O)C2c3[nH]c4ccc(Br)cc4c3C3CCCCCC3C2C1=O (stereo not shown) [Compound 130]
 |  |  |  | >120 | 120 |  |  | COc1ccc2[nH]c3c(c2c1)C1CCCCCCC1C1C(=O)NC(=O)C31 (stereo not shown) [Compound 107]
 |  |  |  | >120 | 30 |  |  | CCCC1CCC2c3c([nH]c4ccc(OC)cc34)C3C(=O)N(C)C(=O)C3C2C1 (stereo not shown) [Compound 174]
